Source: patent US20250339409A1, “USES OF PAN BET INHIBITORS” (VYNE THERAPEUTICS INC., priority 2021, published 2025)
“And” between values parts separate entries of the source, which are not always exact repeats. Equal values may be shown once. Marks after values point to notes of the source that are not given here.

Test system: anti collagen antibodies induced arthritis (ACAIA)
Assay: Anti collagen antibodies induced arthritis (ACAIA) in mice, intra-articular treatment: paw thickness, arthritis clinical score, body weight;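 note: mouse arthritis induced by IV anti-collagen mAb on day 0 plus IP LPS on day 4, with body weight, caliper paw thickness and 0-4 paw score tracked against a day 0 baseline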

In the case of C[C@@H]1C[C@H]2[C@@H]3CCC4=CC(=O)C=C[C@]4(C)[C@@]3(F)[C@@H](O)C[C@]2(C)[C@@]1(O)C(=O)CO [dexamethasone, Dexamethasone, reference compound], the “Clinical score of treated leg (Avg.)” value (1 mg/kg IA (Group 7), Baseline) is reported as 0.00 points, the “Paw thickness Avg. Delta untreated -treated” value (1 mg/kg IA (Group 7), Baseline) is reported as 0.00 mm and the “Percent change of weight per day (Av)” value (1 mg/kg IA (Group 7), Baseline) is reported as 100.00%. The “Percent change of weight per day (individual animal)” value (1 mg/kg IA (Group 7), Baseline) was 100%, the “Δ clinical score untreated -treated, Avg. Delta” value (1 mg/kg IA (Group 7), Baseline) was 0.00 points and the “Clinical score of treated leg (Avg.)” value (1 mg/kg IA (Group 7), Day 3) was 0.00 points. The “Paw thickness Avg. Delta untreated -treated” value (1 mg/kg IA (Group 7), Day 3) was −0.02 mm, the “Percent change of weight per day (Av)” value (1 mg/kg IA (Group 7), Day 3) was 98.19% and the “Percent change of weight per day (individual animal)” value (1 mg/kg IA (Group 7), Day 3) was 100% and 97.54% and 95.7% and 99.48%. The “Δ clinical score untreated -treated, Avg. Delta” value (1 mg/kg IA (Group 7), Day 3) was 0.00 points, the “Clinical score of treated leg (Avg.)” value (1 mg/kg IA (Group 7), Day 4) was 0.00 points and the “Paw thickness Avg. Delta untreated -treated” value (1 mg/kg IA (Group 7), Day 4) was −0.06 mm. The “Percent change of weight per day (Av)” value (1 mg/kg IA (Group 7), Day 4) was 95.21%, the “Percent change of weight per day (individual animal)” value (1 mg/kg IA (Group 7), Day 4) was 97.91% and 96.55% and 93.01% and 93.23% and the “Δ clinical score untreated -treated, Avg. Delta” value (1 mg/kg IA (Group 7), Day 4) was 0.00 points. For the same molecule, the “Clinical score of treated leg (Avg.)” value (1 mg/kg IA (Group 7), Day 5) was 0.00 points, the “Paw thickness Avg. Delta untreated -treated” value (1 mg/kg IA (Group 7), Day 5) was −0.05 mm and the “Percent change of weight per day (Av)” value (1 mg/kg IA (Group 7), Day 5) was 91.29%. For the same molecule, the “Percent change of weight per day (individual animal)” value (1 mg/kg IA (Group 7), Day 5) was 90.58% and 91.133% and 88.71% and 100%, the “Δ clinical score untreated -treated, Avg. Delta” value (1 mg/kg IA (Group 7), Day 5) was 0.00 points and the “Clinical score of treated leg (Avg.)” value (1 mg/kg IA (Group 7), Day 6) was 0.29 points. For the same molecule, the “Paw thickness Avg. Delta untreated -treated” value (1 mg/kg IA (Group 7), Day 6) was 0.05 mm, the “Paw thickness of treated leg (Avg.)” value (1 mg/kg IA (Group 7), Day 6) was 2.24** mm and the “Paw thickness of untreated leg (Avg.)” value (1 mg/kg IA (Group 7), Day 6) was 2.29 mm. The “Percent change of weight per day (Av)” value (1 mg/kg IA (Group 7), Day 6) was 88.66%, the “Percent change of weight per day (individual animal)” value (1 mg/kg IA (Group 7), Day 6) was 86.91% and 87.68% and 86.02% and 102.0833% and the “Δ clinical score untreated -treated, Avg. Delta” value (1 mg/kg IA (Group 7), Day 6) was 0.29 points. The “Clinical score of treated leg (Avg.)” value (1 mg/kg IA (Group 7), Day 7) was 0.86 points, the “Paw thickness Avg. Delta untreated -treated” value (1 mg/kg IA (Group 7), Day 7) was −0.01 mm and the “Paw thickness of treated leg (Avg.)” value (1 mg/kg IA (Group 7), Day 7) was 2.30** mm. For the same molecule, the “Paw thickness of untreated leg (Avg.)” value (1 mg/kg IA (Group 7), Day 7) was 2.30 mm, the “Percent change of weight per day (Av)” value (1 mg/kg IA (Group 7), Day 7) was 88.04% and the “Percent change of weight per day (individual animal)” value (1 mg/kg IA (Group 7), Day 7) was 89.01% and 83.25% and 86.02% and 104.1667%. For the same molecule, the “Δ clinical score untreated -treated, Avg. Delta” value (1 mg/kg IA (Group 7), Day 7) was 0.00 points, the “Clinical score of treated leg (Avg.)” value (1 mg/kg IA (Group 7), Day 8) was 1.14 points and the “Paw thickness Avg. Delta untreated -treated” value (1 mg/kg IA (Group 7), Day 8) was 0.14 mm. The “Paw thickness of treated leg (Avg.)” value (1 mg/kg IA (Group 7), Day 8) was 2.44 mm, the “Paw thickness of untreated leg (Avg.)” value (1 mg/kg IA (Group 7), Day 8) was 2.59 mm and the “Percent change of weight per day (Av)” value (1 mg/kg IA (Group 7), Day 8) was 89.48%. The “Percent change of weight per day (individual animal)” value (1 mg/kg IA (Group 7), Day 8) was 90.05% and 83.25% and 87.63% and 104.6875%, the “Δ clinical score untreated -treated, Avg. Delta” value (1 mg/kg IA (Group 7), Day 8) was 0.57 points and the “Clinical score of treated leg (Avg.)” value (1 mg/kg IA (Group 7), Day 10) was 1.14 points. For the same molecule, the “Paw thickness Avg. Delta untreated -treated” value (1 mg/kg IA (Group 7), Day 10) was 0.19 mm, the “Paw thickness of treated leg (Avg.)” value (1 mg/kg IA (Group 7), Day 10) was 2.45 mm and the “Paw thickness of untreated leg (Avg.)” value (1 mg/kg IA (Group 7), Day 10) was 2.64 mm. For the same molecule, the “Percent change of weight per day (Av)” value (1 mg/kg IA (Group 7), Day 10) was 92.65%, the “Percent change of weight per day (individual animal)” value (1 mg/kg IA (Group 7), Day 10) was 91.1% and 92.61% and 87.63% and 104.1667% and the “Δ clinical score untreated -treated, Avg. Delta” value (1 mg/kg IA (Group 7), Day 10) was 0.43 points. For the same molecule, the “Clinical score of treated leg (Avg.)” value (1 mg/kg IA (Group 7), Day 12) was 1.29 points, the “Paw thickness Avg. Delta untreated -treated” value (1 mg/kg IA (Group 7), Day 12) was 0.24 mm and the “Paw thickness of treated leg (Avg.)” value (1 mg/kg IA (Group 7), Day 12) was 2.50 mm. The “Paw thickness of untreated leg (Avg.)” value (1 mg/kg IA (Group 7), Day 12) was 2.74 mm, the “Percent change of weight per day (Av)” value (1 mg/kg IA (Group 7), Day 12) was 96.89% and the “Percent change of weight per day (individual animal)” value (1 mg/kg IA (Group 7), Day 12) was 93.19% and 99.01% and 90.32% and 110.4167% and 94.55%. For the same molecule, the “Δ clinical score untreated -treated, Avg. Delta” value (1 mg/kg IA (Group 7), Day 12) was 0.43 points, the “Clinical score of treated leg (Avg.)” value (1 mg/kg IP (Group 6), Baseline) was 0.00 points and the “Paw thickness Avg. Delta untreated -treated” value (1 mg/kg IP (Group 6), Baseline) was 0.02 mm. The “Percent change of weight per day (Av)” value (1 mg/kg IP (Group 6), Baseline) was 100.00%, the “Percent change of weight per day (individual animal)” value (1 mg/kg IP (Group 6), Baseline) was 100% and the “Δ clinical score untreated -treated, Avg. Delta” value (1 mg/kg IP (Group 6), Baseline) was 0.00 points. For the same molecule, the “Clinical score of treated leg (Avg.)” value (1 mg/kg IP (Group 6), Day 3) was 0.00 points, the “Paw thickness Avg. Delta untreated -treated” value (1 mg/kg IP (Group 6), Day 3) was 0.00 mm and the “Percent change of weight per day (Av)” value (1 mg/kg IP (Group 6), Day 3) was 95.60** percent. For the same molecule, the “Percent change of weight per day (individual animal)” value (1 mg/kg IP (Group 6), Day 3) was 94.97% and 94.09% and 95.07% and 96.31% and 96.24% and 96.41% and 96.1165%, the “Δ clinical score untreated -treated, Avg. Delta” value (1 mg/kg IP (Group 6), Day 3) was 0.00 points and the “Clinical score of treated leg (Avg.)” value (1 mg/kg IP (Group 6), Day 4) was 0.00 points. For the same molecule, the “Paw thickness Avg. Delta untreated -treated” value (1 mg/kg IP (Group 6), Day 4) was −0.01 mm, the “Percent change of weight per day (Av)” value (1 mg/kg IP (Group 6), Day 4) was 96.59% and the “Percent change of weight per day (individual animal)” value (1 mg/kg IP (Group 6), Day 4) was 96.48% and 95.5665% and 97.04% and 96.31% and 96.71% and 97.4359% and 96.6%. For the same molecule, the “Δ clinical score untreated -treated, Avg. Delta” value (1 mg/kg IP (Group 6), Day 4) was 0.00 points, the “Clinical score of treated leg (Avg.)” value (1 mg/kg IP (Group 6), Day 5) was 0.00 points and the “Paw thickness Avg. Delta untreated -treated” value (1 mg/kg IP (Group 6), Day 5) was 0.01 mm. The “Percent change of weight per day (Av)” value (1 mg/kg IP (Group 6), Day 5) was 88.34%, the “Percent change of weight per day (individual animal)” value (1 mg/kg IP (Group 6), Day 5) was 88.44% and 86.2069% and 91.63% and 86.18% and 86.85% and 89.74% and 89.32% and the “Δ clinical score untreated -treated, Avg. Delta” value (1 mg/kg IP (Group 6), Day 5) was 0.00 points. For the same molecule, the “Clinical score of treated leg (Avg.)” value (1 mg/kg IP (Group 6), Day 6) was 0.00* points and the “Paw thickness Avg. Delta untreated -treated” value (1 mg/kg IP (Group 6), Day 6) was −0.05 mm.
